Experimental data reported in PubChem BioAssay AID1919013 (Molecular Pharmacology Branch, DTP, NCI, 2023).

Tested on: LG0703-F498-PDC complex spheroid growth
Assay: Anticancer human tumor LG0703-F498-PDC patient-derived lung adenocarcinoma cell line growth inhibition [AhR]
Conditions: for IC50: curve of first compound; for viability, T/C: stronger effect = lower value
Procedure, shortened: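 Agents were dosed in half-log steps down from roughly clinical Cmax, or from 10 microM where Cmax was unknown, alone and with AhR antagonists. Read-out: percent test/control growth of tumor spheroids containing HUVEC and MSC stromal cells.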

[1] = second compound 0.1 µM, first compound 0.0316 µM
[2] = second compound 0.1 µM, first compound 0.1 µM
[3] = second compound 0.1 µM, first compound 0.316 µM
[4] = second compound 0.1 µM, first compound 1 µM
[5] = second compound 0.316 µM, first compound 0.0316 µM
[6] = second compound 0.316 µM, first compound 0.1 µM
[7] = second compound 0.316 µM, first compound 0.316 µM
[8] = second compound 0.316 µM, first compound 1 µM
[9] = second compound 1 µM, first compound 0.0316 µM
[10] = second compound 1 µM, first compound 0.1 µM
[11] = second compound 1 µM, first compound 0.316 µM
[12] = second compound 1 µM, first compound 1 µM
[13] = second compound 3.16 µM, first compound 0.0316 µM
[14] = second compound 3.16 µM, first compound 0.1 µM
[15] = second compound 3.16 µM, first compound 0.316 µM
[16] = second compound 3.16 µM, first compound 1 µM
[17] = second compound 10 µM, first compound 0.0316 µM
[18] = second compound 10 µM, first compound 0.1 µM
[19] = second compound 10 µM, first compound 0.316 µM
[20] = second compound 10 µM, first compound 1 µM
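Further: luminescence taken as a proxy for viable cell amount.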
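Wherever viability, T/C is given: percent of DMSO vehicle control where 100% means growth equal to vehicle.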

Compound	IC50 (second compound 0.1 µM) [nM]	IC50 (second compound 0.316 µM) [nM]	IC50 (second compound 1 µM) [nM]	IC50 (second compound 3.16 µM) [nM]	IC50 (second compound 10 µM) [nM]	viability, T/C [1] [%]	viability, T/C [2] [%]	viability, T/C [3] [%]	viability, T/C [4] [%]	viability, T/C [5] [%]	viability, T/C [6] [%]	viability, T/C [7] [%]	viability, T/C [8] [%]	viability, T/C [9] [%]	viability, T/C [10] [%]	viability, T/C [11] [%]	viability, T/C [12] [%]	viability, T/C [13] [%]	viability, T/C [14] [%]	viability, T/C [15] [%]	further results
CC1COCCN1c1cc(-c2ccnn2C)c2ccnc(-c3ccn[nH]3)c2n1 (stereo not given) + CC(CO)NC(=O)c1cc(-c2ccc(Cl)cc2)nn(-c2cnn(C)c2)c1=O	666	465	602	416	243	93.4	70.6	66.2	42.5	96.6	72.5	55.8	43.4	90.7	82.4	58.1	42.5	78.2	67.2	55.1	viability, T/C (second compound 0.1 µM, first compound 0.00316 µM): 107%; viability, T/C (second compound 0.1 µM, first compound 0.01 µM): 104%; viability, T/C (second compound 0.316 µM, first compound 0.00316 µM): 93.2%; viability, T/C (second compound 0.316 µM, first compound 0.01 µM): 110%; viability, T/C (second compound 1 µM, first compound 0.00316 µM): 108%; viability, T/C (second compound 1 µM, first compound 0.01 µM): 102%; viability, T/C (second compound 3.16 µM, first compound 0.00316 µM): 87.5%; viability, T/C (second compound 3.16 µM, first compound 0.01 µM): 90.5%; viability, T/C [16]: 37.9%; viability, T/C (second compound 10 µM, first compound 0.00316 µM): 101%; viability, T/C (second compound 10 µM, first compound 0.01 µM): 90.1%; viability, T/C [17]: 82.7%; viability, T/C [18]: 60.8%; viability, T/C [19]: 47.1%; viability, T/C [20]: 32.6%
CC1COCCN1c1cc(C2(S(C)(=N)=O)CC2)nc(-c2ccnc3[nH]ccc23)n1 (stereo not given) + CC(CO)NC(=O)c1cc(-c2ccc(Cl)cc2)nn(-c2cnn(C)c2)c1=O	> 10000	> 10000	> 10000	> 10000	> 10000	101	91.6	89.7	99.3	92.6	91.7	93.7	90.2	97.8	92.8	88.3	91	89.9	89	95.8	viability, T/C (second compound 0.1 µM, first compound 3.16 µM): 79.1%; viability, T/C (second compound 0.1 µM, first compound 10 µM): 63.4%; viability, T/C (second compound 0.316 µM, first compound 3.16 µM): 86%; viability, T/C (second compound 0.316 µM, first compound 10 µM): 53.1%; viability, T/C (second compound 1 µM, first compound 3.16 µM): 68.8%; viability, T/C (second compound 1 µM, first compound 10 µM): 60%; viability, T/C [16]: 82.3%; viability, T/C (second compound 3.16 µM, first compound 3.16 µM): 79.1%; viability, T/C (second compound 3.16 µM, first compound 10 µM): 59.1%; viability, T/C [17]: 76.1%; viability, T/C [18]: 95.3%; viability, T/C [19]: 73.8%; viability, T/C [20]: 83.7%; viability, T/C (second compound 10 µM, first compound 3.16 µM): 59.6%; viability, T/C (second compound 10 µM, first compound 10 µM): 51.3%
